# In paper PMC7114339 (Antiviral Research, 2020):
# Entries after “also recorded” stand apart in the source; their conditions may differ.
# Legend:
# [1] = test system: tumor growth; conditions: xenograft mouse model ref Wolfe et al., 2014; cited from earlier work
# [2] = test system: MRC-5 cells
# [3] = test system: persistently HEV-infected A549 cells; assay: Cell viability of persistently HEV-infected A549 cells; conditions: 2 nM, 72 h
# [4] = 2014, cited from earlier work
# [5] = test system: HCoV-229E; format: cell-based
# [6] = test system: ZIKV; assay: Antiviral activity in ZIKV-infected A549 cells; format: cell-based; conditions: ZIKV RNA, MOI 0.1, 24 hpi
# [7] = test system: LASV; assay: cells; format: cell-based
# [8] = test system: 5′-UTR of HCoV-229E; format: cell-based
# [9] = test system: 5′-terminal hairpin of VP35 (VP35-HP only); format: cell-based, EBOV
# [10] = test system: CCHFV; assay: cells; format: cell-based
# [11] = test system: (AG)15 construct; assay: cells; format: cell-based; conditions: read-out: inhibited translation
# [12] = test system: (AC)15 sequence; format: cell-based
# [13] = test system: HEV; format: cell-based
# [14] = in vitro; conditions: human
# [15] = Cell toxicity in murine hepatocytes; conditions: mouse, murine hepatocytes (mock infected)
# [16] = test system: HEVgt3c-Purine 5′-UTR; format: cell-based, HEV
# [17] = test system: A549 cells; conditions: human
# [18] = test system: 5′-UTR of EBOV VP30 mRNA; format: cell-based
# [19] = test system: 5′-UTR of MERS-CoV; format: cell-based
# [20] = test system: HEVgt3c-G4C and HEVgt3c-G4CC6A; format: cell-based, HEV
# [21] = test system: 5′-UTR of HEV (HEVgt3c); format: cell-based; conditions: 10 nM
# [22] = test system: HCoV-229E; assay: microbe, parasite or virus in culture; format: cell-based; conditions: Human coronavirus 229E, MRC5
# [23] = test system: VP35-HP+(AG)5; format: cell-based, EBOV
# [24] = test system: 5′-UTR of EBOV VP35; format: cell-based
compound,measurement,setting,value
CR-31-B,tumor growth,[1],reduced tumor growth efficiently
same,cytotoxic effects,[2],no major cytotoxic effects
same,cytotoxicity,[3],not cytotoxic
same,body weight or the number of blood cells,[4]; mice ref Wolfe et al.,did not change
same,toxicity in the gastrointestinal tract,[4]; mice ref Wolfe et al.,no toxicity could be observed
same,"serum levels of aminotransferases (ALT and AST), albumin, total bilirubin, creatinine",[4]; two weeks after cessation of treatment ref Wolfe et al.,not significantly changed
COC(=O)[C@H]1[C@@H](O)[C@@]2(O)c3c(OC)cc(O[C@@H]4O[C@@H]([C@H](O)CO)CO[C@H]4OC)cc3O[C@@]2(c2ccc(OC)cc2)[C@@H]1c1ccccc1 [Silvestrol],virus titer in the supernatant reduced by,[5],similar
same,infectious virus production,[5]; 100 nM,undetectable levels
same,EC50,[6],1.08 nM
same,"virus titer drop, LASV",[7],~ 4 log
same,EC50,"[7]; Mus musculus, Hepatocyte",50.7 nM
same,tumor growth,[1],reduced tumor growth efficiently
same,sensitivity to translation inhibition,[8],similarly sensitive
same,cytotoxicity,[3],some cytotoxicity
same,effect on reporter activity,[9],sufficient to mediate translation inhibition
same,"virus titer drop, CCHFV",[10],3 log
same,EC50,"[10]; Mus musculus, Hepatocyte",28.5 nM
same,inhibition at 0.01 µM,[11],~55%
same,induction of luciferase activity,[12],1.5 fold
same,antiviral effect against HEV (extracellular viral RNA levels),[13],confirmed the antiviral activity; also recorded: reduce the levels of extracellular HEV RNA
same,CC50,[14],> 10000 nM
same,CC50,[15],> 5000 nM
same,sensitivity to treatment,[16],sensitive
same,CC50,[17],9.42 nM
same,sensitivity to translation inhibition,[18],similarly sensitive
same,sensitivity to translation inhibition,[19],similarly sensitive
same,inhibitory effect,[20],gradual loss of the inhibitory effect
same,luciferase activity,[21],reduced luciferase activity
same,EC50,[22],3 nM
same,effect on reporter activity,[23],slightly increased translation inhibition
same,sensitivity to translation inhibition,[24],sensitive
